From ChEMBL document CHEMBL1201862, “PubChem BioAssay data set” (2004)
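Values below derive from 48-hour exposures of cells grown in 96-well plates, with endpoints linearly interpolated between the two concentrations bracketing the appropriate inhibition level. GI50: concentration for 50% inhibition of growth.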 Calls of active or inactive are those of the source. Cut-off read from the data, not from the text of the source: active = GI50 up to about 1.1 µM and inactive = higher.

Assays:
Assay in all cases: inhibition of tumour cell growth, NCI panel, 48 h
[1] = test system: COLO 205
[2] = test system: EKVX
[3] = test system: HCT-116
[4] = test system: HCT-15
[5] = test system: HL-60
[6] = test system: IGROV-1
[7] = test system: Malme-3M
[8] = test system: NCI-H226
[9] = test system: NCI-H23
[10] = test system: RXF 393
[11] = test system: SF-268
[12] = test system: SN12C
[13] = test system: SNB-75
[14] = test system: SW-620
[15] = test system: TK-10
[16] = test system: UACC-257
[17] = test system: RPMI-8226

Row | SMILES | GI50 [1] | GI50 [2] | GI50 [3] | GI50 [4] | GI50 [5] | GI50 [6] | GI50 [7] | GI50 [8] | GI50 [9] | GI50 [10] | GI50 [11] | GI50 [12] | GI50 [13] | GI50 [14] | GI50 [15] | GI50 [16] | GI50 [17]
1 | COC(=O)CC1CC2(C(=O)OC)c3[nH]c4ccccc4c3CCN2C1=O (centres undefined) | > 100 µM (inactive) | > 100 µM (inactive) | > 100 µM (inactive) | > 100 µM | > 100 µM (inactive) | > 100 µM (inactive) | > 100 µM (inactive) | > 100 µM (inactive) | > 100 µM (inactive) | > 100 µM (inactive) | > 100 µM (inactive) | > 100 µM (inactive) | > 100 µM (inactive) | > 100 µM (inactive) | > 100 µM (inactive) | > 100 µM (inactive) | 
2 | CCOC(=O)c1cc(C(=O)O)c(=O)n2c1[nH]c1ccccc12 | > 100 µM (inactive) | > 100 µM (inactive) | 40.7 µM (inactive) | 46.7 µM | > 100 µM (inactive) | 88.9 µM (inactive) | > 100 µM (inactive) |  | 26.9 µM (inactive) | 24.3 µM (inactive) | 61 µM (inactive) | > 100 µM (inactive) | 31.8 µM (inactive) | > 100 µM (inactive) | > 100 µM (inactive) | > 100 µM (inactive) | 46.3 µM (inactive)
3 | O=C1OC(Cl)C(N=P(c2ccccc2)(c2ccccc2)c2ccccc2)=C1Cl (centres undefined) | > 100 µM (inactive) | > 100 µM (inactive) | > 100 µM (inactive) |  | > 100 µM (inactive) | > 100 µM (inactive) | > 100 µM (inactive) | > 100 µM (inactive) | > 100 µM (inactive) |  | > 100 µM (inactive) | > 100 µM (inactive) | 36.4 µM (inactive) | > 100 µM (inactive) | > 100 µM (inactive) | > 100 µM (inactive) | > 100 µM (inactive)
4 | O=C(O)C1=C(O)C(C(=O)O)C23CCCCCCCCCCC12C(C(=O)O)C(O)=C3C(=O)O (centres undefined) | > 100 µM (inactive) | > 100 µM (inactive) |  | > 100 µM | > 100 µM (inactive) | > 100 µM (inactive) | > 100 µM (inactive) | > 100 µM (inactive) | > 100 µM (inactive) | > 100 µM (inactive) | > 100 µM (inactive) | > 100 µM (inactive) |  | > 100 µM (inactive) | > 100 µM (inactive) | > 100 µM (inactive) | > 100 µM (inactive)
5 | CC1(S)CC2C(CC1Sc1ccccc1)C2(C)C (centres undefined) | > 100 µM (inactive) | > 100 µM (inactive) | > 100 µM (inactive) | > 100 µM | > 100 µM (inactive) | > 100 µM (inactive) | > 100 µM (inactive) | > 100 µM (inactive) | > 100 µM (inactive) |  | > 100 µM (inactive) | > 100 µM (inactive) | > 100 µM (inactive) |  | > 100 µM (inactive) | > 100 µM (inactive) | > 100 µM (inactive)
6 | Cc1cccc(NC(=O)C(=O)C(C2OC(=O)c3ccccc32)[N+](=O)[O-])c1C (centres undefined) | 15.4 µM (inactive) | 17.6 µM (inactive) | 5.96 µM (inactive) | 5.21 µM | 2.37 µM (inactive) | 9.82 µM (inactive) | 3.79 µM (inactive) | 12.6 µM (inactive) | 5.46 µM (inactive) | 6.87 µM (inactive) | 7.52 µM (inactive) | 6.34 µM (inactive) | 5.51 µM (inactive) | 5.57 µM (inactive) | 18 µM (inactive) | 5.61 µM (inactive) | 
7 | CC(C)c1cccc(C(C)C)c1NC(=O)C(=O)C(C(=O)c1ccc2ccccc2c1)C1OC(=O)c2ccccc21 (centres undefined) | > 100 µM (inactive) | 24.5 µM (inactive) | > 100 µM (inactive) | > 100 µM |  | > 100 µM (inactive) | > 100 µM (inactive) | 19.7 µM (inactive) | > 100 µM (inactive) | 11 µM (inactive) | > 100 µM (inactive) | > 100 µM (inactive) |  | > 100 µM (inactive) |  | > 100 µM (inactive) | > 100 µM (inactive)
8 | Cc1ccc(/C=C/C(=O)C(C)C)cc1 | > 100 µM (inactive) | > 100 µM (inactive) |  |  |  | 92 µM (inactive) |  |  | 46.6 µM (inactive) | 39.8 µM (inactive) | > 100 µM (inactive) |  | 35.2 µM (inactive) | 47.5 µM (inactive) | > 100 µM (inactive) | 53.6 µM (inactive) | 27.9 µM (inactive)
9 | COC(=O)c1cccc2c3ccccc3c3ccccc3c12 | 16.6 µM (inactive) | > 100 µM (inactive) | 37.8 µM (inactive) | 35.2 µM | 23.3 µM (inactive) | 62.8 µM (inactive) | 73.5 µM (inactive) | > 100 µM (inactive) | 23.1 µM (inactive) | 24 µM (inactive) | 37.2 µM (inactive) | 45.4 µM (inactive) | 26.9 µM (inactive) | 43.5 µM (inactive) | 46.5 µM (inactive) | 38.3 µM (inactive) | 
